Biological target: T1, human D3 dopamine receptor (Homo sapiens, UniProt P35462)
T1 construct: expressed in transfected cells; host or cells: HEK-293 EBNA cells, transient transfection; membrane preparation
Experiment: radioligand binding ([3H]-spiperone) to cloned human D3 receptors expressed in HEK-293 EBNA cells
Conditions: [3H]-spiperone approx. 0.5 nM, HEK-293 EBNA membranes, 1 h at RT; Ki by Cheng-Prusoff
Experimental: The cells were harvested 48 h post-transfection, washed three times with cold PBS and stored at −80° C. prior to use. The pellet was suspended in cold 50 mM Tris-HCl buffer containing 10 mM EDTA (pH 7.4) and homogenized with a Polytron (Kinematica AG, Basel, Switzerland) for 20-30 sec at 12.000 rpm. After centrifugation at 48.000×g for 30 min at 4° C., the pellet was resuspended in cold 10 mM Tris-HCl buffer containing 0.1 mM EDTA (pH 7.4), homogenized, and centrifuged as above. This pellet was further resuspended in a smaller volume of ice cold 10 mM Tris-HCl buffer containing 0.1 mM EDTA (pH 7.4) and homogenized with a Polytron for 20-30 sec at 12.000 rpm. The protein content of this homogenate was determined with the Bio-Rad (Bradford) Protein Assay (Biorad Laboratories GmbH, München, Germany) according to the instructions of the manufacturer using gamma globulin as the standard. This homogenate was stored at −80° C. in aliquots and thawed immediately prior to use.
Aliquots of membrane preparations were thawed at RT, resuspended in assay buffer (50 mM Tris-HCl, 120 mM NaCl, 5 mM MgCl2, 1 mM EDTA, 5 mM KCl, 1.5 mM CaCl2, pH=7.4), homogenized with a Polytron for 20-30 sec at 12.000 rpm and adjusted to a final concentration of approximately 7.5 μg protein/well.
The binding affinity (Ki) of the compounds was determined using radioligand binding. Membranes were incubated in a total volume of 200 μl with a fixed concentration of radioligand (final concentration approximately 0.5 nM [^3H]-spiperone) and ten concentrations of test compound in ranging between 10 μM-0.1 nM for 1 h at RT. […] The nonspecific binding was determined with equally composed reaction mixtures in the presence of 10 μM unlabelled spiperone. Per well 45 μl of Microscint 40 (Perkin Elmer, Schwerzenbach, Switzerland) was added, plates for sealed, shaken for 20 min and counted for 3 min on a Topcount Microplate Scintillation Counter (Canberra Packard SA, Zürich, Switzerland) with quenching correction.
The CPM value for each duplicate of a concentration of competing compound was averaged (y1), then the % specific binding was calculated according to the equation (((y1−non-specific)/(total binding−non-specific))×100). Graphs were plotted with the % specific binding using XLfit, a curve fitting program that iteratively plots the data using Levenburg Marquardt algorithm. The single site competition analysis equation used was y=A+((B−A)/(1+((x/C)^D))), where y is the % specific binding, A is the minimum y, B is the maximum y, C is the IC50, x is the log10 of the concentration of the competing compound and D is the slope of the curve (the Hill Coefficient). […] The affinity constant (Ki) was calculated using the Cheng-Prusoff equation Ki=(IC50/1+([L]/Kd), where [L] is the concentration of radioligand and Kd is the dissociation constant of the radioligand at the receptor as determined by the saturation isotherm.

T1 sequence (P35462 whole entry): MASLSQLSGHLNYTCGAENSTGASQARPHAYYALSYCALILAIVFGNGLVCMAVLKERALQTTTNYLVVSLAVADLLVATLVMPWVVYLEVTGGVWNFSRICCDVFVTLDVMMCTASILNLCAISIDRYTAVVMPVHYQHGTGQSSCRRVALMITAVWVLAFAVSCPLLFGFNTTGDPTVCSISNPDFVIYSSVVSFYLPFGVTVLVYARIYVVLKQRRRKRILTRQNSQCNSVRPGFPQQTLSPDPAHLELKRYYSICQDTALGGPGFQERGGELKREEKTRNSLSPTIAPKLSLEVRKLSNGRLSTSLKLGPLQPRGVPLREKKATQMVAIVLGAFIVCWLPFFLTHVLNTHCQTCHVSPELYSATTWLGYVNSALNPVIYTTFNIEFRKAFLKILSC

Row | Structure (SMILES) | Ki [nM]
1 | CC(=O)N[C@H]1CC[C@H](CCN2CCN(c3noc4ccncc34)CC2)CC1 [Example 1, N-{trans-4-[2-(4-Isoxazolo[4,5-c]pyridin-3-yl-piperazin-1-yl)-ethyl]-cyclohexyl}-acetamide] | 40.4
2 | COCCC(=O)N[C@H]1CC[C@H](CCN2CCN(c3noc4ccncc34)CC2)CC1 [Example 2, N-{trans-4-[2-(4-Isoxazolo[4,5-c]pyridin-3-yl-piperazin-1-yl)-ethyl]-cyclohexyl}-3-methoxy-propionamide] | 24.3
3 | CCC(=O)N[C@H]1CC[C@H](CCN2CCN(c3noc4ccncc34)CC2)CC1 [Example 3, N-{trans-4-[2-(4-Isoxazolo[4,5-c]pyridin-3-yl-piperazin-1-yl)-ethyl]-cyclohexyl}-propionamide] | 12.4
4 | O=C(CC1CC1)N[C@H]1CC[C@H](CCN2CCN(c3noc4ccncc34)CC2)CC1 [Example 4, 2-Cyclopropyl-N-{trans-4-[2-(4-isoxazolo[4,5-c]pyridin-3-yl-piperazin-1-yl)-ethyl]-cyclohexyl}-acetamide] | 15.4
5 | O=C(CF)N[C@H]1CC[C@H](CCN2CCN(c3noc4ccncc34)CC2)CC1 [Example 5, 2-Fluoro-N-{trans-4-[2-(4-isoxazolo[4,5-c]pyridin-3-yl-piperazin-1-yl)-ethyl]-cyclohexyl}-acetamide] | 43
6 | O=C(N[C@H]1CC[C@H](CCN2CCN(c3noc4ccncc34)CC2)CC1)c1ccc(F)cc1 [Example 6, 4-Fluoro-N-{trans-4-[2-(4-isoxazolo[4,5-c]pyridin-3-yl-piperazin-1-yl)-ethyl]-cyclohexyl}-benzamide] | 97
7 | O=C(N[C@H]1CC[C@H](CCN2CCN(c3noc4ccncc34)CC2)CC1)c1ccc(F)nc1 [Example 7, 6-Fluoro-N-{trans-4-[2-(4-isoxazolo[4,5-c]pyridin-3-yl-piperazin-1-yl)-ethyl]-cyclohexyl}-nicotinamide] | 63
